# Read-outs that look alike come from different tables or passages of the source.
# Columns and labels:
# H. pylori = assay: MIC testing by broth dilution, H. pylori; type: cell-based, Helicobacter pylori
# Summary of the method: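 Helicobacter pylori was tested using a standard broth dilution method in 96 well microplates, each well holding a standard dilution of the organism in 100 microliters of Brain Heart Infusion. Compounds started at 32 μg/ml in 200 microliters in the first well and were serially diluted from 32 to 0.06. Wells were read visually at 24 h, and the MIC was the well with no growth.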
# E. coli biofilm = E. coli biofilm assay (activity tables); type: cell-based, Escherichia coli
# Summary of the method: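 E. coli strain 042 inoculated 1:100 with NTZ-containing medium and grown statically at 37 °C for 24 h. Growth measured by turbidity or plate counts (cfu/ml); biofilm stained with 0.5% crystal violet and read at 570 nm; triplicate, mean ± SD.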
# C. difficile [1] = assay: Disk diffusion (Kirby Bower), C. difficile; type: cell-based, Clostridium difficile; conditions: for Disk Diff (%) C. difficile: Nitazoxanide = 100, Furan analogues table; for Disk Diffusion (%) C. difficile: zone of inhibited growth as relative ratio to the zone for NTZ
# Summary of the method: (§1)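 Compounds were diluted serially from 32 μg/ml to 0.06 in medium holding a standard inoculum, then visually scored at 24 h, and the lowest well without growth was recorded. Media were LB for E. coli, Trypticase Soy for S. epidermidis and Brain Heart Infusion for C. jejuni. C. difficile zones were measured anaerobically relative to NTZ.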
# E. coli = assay: MIC testing by broth dilution, E. coli plank; type: cell-based, Escherichia coli
# Summary of the method: as §1
# C. jejuni = assay: MIC testing by broth dilution, C. jejuni; type: cell-based, Campylobacter jejuni
# Summary of the method: as §1
# MRSA = assay: MIC testing by broth dilution, MRSA; type: cell-based, Staphylococcus aureus
# Summary of the method: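 Values are broth-dilution MICs, defined as the well showing no growth on visual reading after 24 h; the tested range was 32 to 0.06 μg/ml, in organism-specific media (LB, Trypticase Soy, Brain Heart Infusion). The C. difficile entries come instead from anaerobic Kirby-Bauer disk zones, normalised to NTZ.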
# C. difficile [2] = assay: MIC by agar dilution, C. difficile; type: cell-based, Clostridium difficile
# Experimental: A standard broth dilution protocol was used in 96 well microplates containing a standard dilution of the microorganism to be tested in 100 microliters of the appropriate medium. Appropriate medium: E. coli, LB medium; Staphylococcus strains, Trypticase Soy; and for H. pylori and C. jejuni, Brain Heart Infusion. The compounds to be tested were set at 32 μg/ml in 200 microliters in well one and then serially diluted to provide a range from 32 to 0.06. The wells were scored visually at 24 h. The well where there was no growth was recorded as the MIC. […]
# (§2) Representative compounds of the invention were tested in a series of assays against a series of organisms as described above. […] The organisms tested include, C. difficile, H. pylori, C. jejuni, MRSA, S. epidermidis, and E. coli. S. epidermidis and E. coli were tested in the plank and biofilm assay. A disk diffusion assay was also used for C. difficile. Direct PFOR enzyme assays were also performed. All analogues and derivatives were not tested on every organism in every type of assay (the “-” in each table means that it was not tested).
# [3] = system: PFOR (pyruvate ferredoxin oxidoreductase); assay: Direct PFOR enzyme assay; type: biochemical
# Experimental: as §2
# S. epidermidis = assay: MIC testing by broth dilution, S. epidermidis plank; type: cell-based, Staphylococcus epidermidis
# Summary of the method: as §1
# S. epidermidis biofilm = S. epidermidis biofilm assay (activity tables); type: cell-based, Staphylococcus epidermidis; conditions: for MIC S. epidermidis Biofilm: Furan analogues table
# Summary of the method: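 Overnight TSB cultures diluted to OD600 0.01 and grown static with compound (triplicate) at 37° C for 16 h; turbidity recorded for growth. Biofilm: washed wells ethanol-fixed, stained with 0.5% crystal violet, A570 read before and after 95% ethanol extraction; mean ± SD.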
# [4] = broth dilution, Brain Heart Infusion, 24 h, read-out: MIC (μM) H. pylori
# [5] = biofilm, read-out: MIC (μM) E. coli Biofilm
# [6] = broth dilution, LB medium, 24 h, read-out: MIC (μM) E. coli Plank
# [7] = broth dilution, Brain Heart Infusion, 24 h, read-out: MIC (μM) C. jejuni
# [8] = broth dilution, Trypticase Soy, 24 h, read-out: MIC (μM) S. epidermidis Plank
# [9] = broth dilution, Trypticase Soy, 24 h, read-out: MIC (μM) MRSA
# [10] = agar dilution, anaerobic, Wilkins Chalgrin agar, read-out: MIC (μM) C. difficile
# [11] = Furan analogues table, read-out: MIC H. pylori
# [12] = biofilm, Furan analogues table, read-out: MIC E. coli Biofilm
# [13] = planktonic, Furan analogues table, read-out: MIC E. coli Plank
# [14] = Furan analogues table, read-out: MIC C. jejuni
# [15] = planktonic, Furan analogues table, read-out: MIC S. epidermidis Plank
# [16] = Furan analogues table, read-out: MIC MRSA
PFOR inhibition relative to nitazoxanide (=100) ([3]; Furan analogues table) [%],PFOR inhibition relative to nitazoxanide (=100) [3] [%],SMILES,Disk Diff (%) C. difficile (C. difficile [1]) [%],MIC S. epidermidis Biofilm (S. epidermidis biofilm) [µM],MIC (H. pylori; [11]) [µM],MIC (E. coli biofilm; [12]) [µM],MIC (E. coli; [13]) [µM],MIC (C. jejuni; [14]) [µM],MIC (S. epidermidis; [15]) [µM],MIC (MRSA; [16]) [µM],further results
98,,"O=C(Nc1ncc([N+](=O)[O-])s1)c1ccoc1 [VPC16a1006, N-(5-Nitrothiazol-2-yl)furan-3-carboxamide]",97 ± 3,,,,,,,,"MIC (H. pylori; Helicobacter pylori, Furan analogues table, read-out: MIC H. pylori): 0.8 µM; MIC (E. coli biofilm; Escherichia coli, biofilm, Furan analogues table, read-out: MIC E. coli Biofilm): 134 µM; MIC (E. coli; Escherichia coli, planktonic, Furan analogues table, read-out: MIC E. coli Plank): 134 µM; MIC (C. jejuni; Campylobacter jejuni, Furan analogues table, read-out: MIC C. jejuni): 12.5 µM; MIC (MRSA; Staphylococcus aureus, MRSA, Furan analogues table, read-out: MIC MRSA): 50.2 µM; MIC (C. difficile [2]; Clostridioides difficile, Furan analogues table, read-out: MIC C. difficile): 33.4 µM"
,123,"CCCCCC(=O)Nc1ncc([N+](=O)[O-])s1 [VPC16a1007, N-(5-Nitrothiazol-2-yl)hexanamide]",,,,,,,,,"MIC (H. pylori; Helicobacter pylori, broth dilution, Brain Heart Infusion, 24 h, read-out: MIC (μM) H. pylori): 1.4 µM; MIC (E. coli biofilm; Escherichia coli, read-out: MIC (μM) E. coli Biofilm): 132 µM; Disk Diffusion (%) C. difficile (C. difficile [1]): 56.5 ± 0.5%; MIC (E. coli; Escherichia coli, broth dilution, LB medium, 24 h, read-out: MIC (μM) E. coli Plank): 132 µM; MIC (C. jejuni; Campylobacter jejuni, broth dilution, Brain Heart Infusion, 24 h, read-out: MIC (μM) C. jejuni): 5.5 µM; MIC (S. epidermidis; Staphylococcus epidermidis, broth dilution, Trypticase Soy, 24 h, read-out: MIC (μM) S. epidermidis Plank): 32.9 µM; MIC (C. difficile [2]; Clostridioides difficile, agar dilution, anaerobic, Wilkins Chalgrin agar, read-out: MIC (μM) C. difficile): 65.8 µM"
,93,O=C(Nc1ncc([N+](=O)[O-])s1)C1CCCCC1 [VPC16a1010],,,,,,,,,MIC (H. pylori; [4]): 0.7 µM; MIC (E. coli biofilm; [5]): 31.3 µM; Disk Diffusion (%) C. difficile (C. difficile [1]): 53 ± 3%; MIC (E. coli; [6]): 125.2 µM; MIC (C. jejuni; [7]): 11.4 µM; MIC (S. epidermidis; [8]): 31.3 µM; MIC (MRSA; [9]): 125.2 µM; MIC (C. difficile [2]; [10]): 62.6 µM
,,O=C(Nc1ncc([N+](=O)[O-])s1)c1ccc([N+](=O)[O-])o1 [VPC16b1007],102 ± 8,56.3,21.1,26.4,14.1,7.0,28.1,112.6,"MIC (C. difficile [2]; Furan analogues table, read-out: MIC C. difficile): 28.2 µM"
70,,O=C(Nc1ncc([N+](=O)[O-])s1)c1cc2ccccc2o1 [VPC161144],,110.6,0.6,110.6,110.6,110.6,110.6,57.0,

SMILES,PFOR inhibition relative to nitazoxanide (=100) ([3]; Furan analogues table) [%],PFOR inhibition relative to nitazoxanide (=100) [3] [%],Disk Diff (%) C. difficile (C. difficile [1]) [%],MIC S. epidermidis Biofilm (S. epidermidis biofilm) [µM],MIC (H. pylori; [11]) [µM],MIC (E. coli biofilm; [12]) [µM],MIC (E. coli; [13]) [µM],MIC (C. jejuni; [14]) [µM],MIC (S. epidermidis; [15]) [µM],MIC (MRSA; [16]) [µM],further results
COc1cc([N+](=O)[O-])ccc1C(=O)Nc1ncc([N+](=O)[O-])s1 [VPC161093],,115,,,,,,,,,MIC (μM) S. epidermidis Biofilm (S. epidermidis biofilm): 12.3 µM; MIC (H. pylori; [4]): 0.6 µM; MIC (E. coli biofilm; [5]): 98.7 µM; MIC (E. coli; [6]): 98.7 µM; MIC (C. jejuni; [7]): 9.3 µM; MIC (S. epidermidis; [8]): 12.3 µM; MIC (MRSA; [9]): 98.7 µM; MIC (C. difficile [2]; [10]): 98.7 µM
O=C(Nc1ncc([N+](=O)[O-])s1)c1ccco1 [VPC161124],82,,100,66.9,1.0,33.4,133.8,8.4,66.9,50.2,

# Source: patent publication US8835644B2, “Broad spectrum benzothiophene-nitrothiazolide and other antimicrobials” (University of Virginia Patent Foundation, priority 2009, dated 2014)
